pIC50: −log10 of the molar value.
biological target: T1, wild-type EZH2 (PRC2 enzyme) (Homo sapiens, UniProt Q15910); assay: PRC2 enzyme assay on peptide substrates (wild-type EZH2); format: biochemical; conditions: wild-type PRC2 enzyme 4 nM, H3K27me0 peptide substrate, 3H-SAM Flashplate; read-out: WT EZH2 IC50
T1 construct: made in house; host or cells: Spodoptera frugiperda (sf9) cells, baculovirus
From the text: General Materials. S-adenosylmethionine (SAM), S-adenosylhomocyteine (SAH), bicine, KCl, Tween20, dimethylsulfoxide (DMSO) and bovine skin gelatin (BSG) were purchased from Sigma-Aldrich at the highest level of purity possible. Dithiothreitol (DTT) was purchased from EMD Millipore. ^3H-SAM was purchased from American Radiolabeled Chemicals with a specific activity of 80 Ci/mmol. 384-well streptavidin Flashplates were purchased from PerkinElmer.
Substrates. Peptides representative of human histone H3 residues 21- 44 containing either an unmodified lysine 27 (H3K27me0) or dimethylated lysine 27 (H3K27me2) are synthesized with a C-terminal G(K-biotin) linker-affinity tag motif and a C-terminal amide cap by 21st Century Biochemicals. The peptides are high-performance liquid chromatography (HPLC) purified to greater than 95% purity and confirmed by liquid chromatography mass spectrometry (LC-MS). The sequences are listed below.
Recombinant PRC2 Enzymes. Human PRC2 enzymes were purified as 4-component enzyme complexes co-expressed in Spodoptera frugiperda (sf9) cells using a baculovirus expression system. The subunits expressed were wild-type EZH2 (NM_004456) or EZH2 Y641F, N, H, S or C mutants generated from the wild-type EZH2 construct, EED (NM_003797), Suz12 (NM_015355) and RbAp48 (NM_005610). The EED subunit contained an N-terminal FLAG tag that was used to purify the entire 4-component complex from sf9 cell lysates. The purity of the complexes met or exceeded 95% as determined by SDS-PAGE and Agilent Bioanalyzer analysis. Concentrations of enzyme stock concentrations (generally 0.3-1.0 mg/mL) was determined using a Bradford assay against a bovine serum albumin (BSA) standard.
General Procedure for PRC2 Enzyme Assays on Peptide Substrates. The assays were all performed in a buffer consisting of 20 mM bicine (pH=7.6), 0.5 mM DTT, 0.005% BSG and 0.002% Tween20, prepared on the day of use. Compounds in 100% DMSO (1 μL) were spotted into polypropylene 384-well V-bottom plates (Greiner) using a Platemate 2×3 outfitted with a 384-channel pipet head (Thermo). DMSO (1 μL) was added to columns 11, 12, 23, 24, rows A -H for the maximum signal control, and SAH, a known product and inhibitor of PRC2 (1 μL) was added to columns 11,12, 23, 24, rows I -P for the minimum signal control. A cocktail (40 μL) containing the wild-type PRC2 enzyme and H3K27me0 peptide or any of the Y641 mutant enzymes and H3K27me2 peptide was added by Multidrop Combi (Thermo). The compounds were allowed to incubate with PRC2 for 30 min at 25° C., then a cocktail (10 μL) containing a mixture of non-radioactive and ^3H-SAM was added to initiate the reaction (final volume=51 μL). In all cases, the final concentrations were as follows: wild-type or mutant PRC2 enzyme was 4 nM, SAH in the minimum signal control wells was 1 mM and the DMSO concentration was 1%. The assays were stopped by the addition of non-radioactive SAM (10 μL) to a final concentration of 600 μM, which dilutes the ^3H-SAM to a level where its incorporation into the peptide substrate is no longer detectable. 50 μL of the reaction in the 384-well polypropylene plate was then transferred to a 384-well Flashplate and the biotinylated peptides were allowed to bind to the streptavidin surface for at least 1 h before being washed three times with 0.1% Tween20 in a Biotek ELx405 plate washer. The plates were then read in a PerkinElmer TopCount platereader to measure the quantity of ^3H-labeled peptide bound to the Flashplate surface, measured as disintegrations per minute (dpm) or alternatively, referred to as counts per minute (cpm).
Where dpm=disintegrations per minute, cmpd=signal in assay well, and min and max are the respective minimum and maximum signal controls.
Where top and bottom are the normally allowed to float, but may be fixed at 100 or 0 respectively in a 3-parameter fit. The Hill Coefficient normally allowed to float but may also be fixed at 1 in a 3-parameter fit. […]

T1 sequence (Q15910 1-751 isoform Q15910-2): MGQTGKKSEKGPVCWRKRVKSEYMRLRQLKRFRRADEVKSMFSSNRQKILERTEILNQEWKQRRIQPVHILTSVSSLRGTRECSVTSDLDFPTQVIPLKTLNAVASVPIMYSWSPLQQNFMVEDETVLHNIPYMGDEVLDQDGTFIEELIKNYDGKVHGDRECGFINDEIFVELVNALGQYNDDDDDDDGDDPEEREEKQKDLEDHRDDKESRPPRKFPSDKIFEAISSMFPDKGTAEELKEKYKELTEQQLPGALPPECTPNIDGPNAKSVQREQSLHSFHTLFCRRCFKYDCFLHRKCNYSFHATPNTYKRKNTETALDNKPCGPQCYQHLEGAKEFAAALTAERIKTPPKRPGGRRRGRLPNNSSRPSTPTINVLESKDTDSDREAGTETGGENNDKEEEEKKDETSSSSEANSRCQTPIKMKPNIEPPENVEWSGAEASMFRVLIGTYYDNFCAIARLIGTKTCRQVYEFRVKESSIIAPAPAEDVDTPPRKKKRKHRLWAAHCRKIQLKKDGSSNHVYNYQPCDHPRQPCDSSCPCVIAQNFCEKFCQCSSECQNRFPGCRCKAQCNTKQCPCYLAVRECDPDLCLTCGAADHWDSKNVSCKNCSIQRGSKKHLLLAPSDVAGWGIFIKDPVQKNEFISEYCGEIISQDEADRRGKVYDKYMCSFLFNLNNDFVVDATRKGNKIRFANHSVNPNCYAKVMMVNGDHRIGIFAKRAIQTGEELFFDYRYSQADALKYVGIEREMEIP
T1 sequence (O75530 whole entry partner): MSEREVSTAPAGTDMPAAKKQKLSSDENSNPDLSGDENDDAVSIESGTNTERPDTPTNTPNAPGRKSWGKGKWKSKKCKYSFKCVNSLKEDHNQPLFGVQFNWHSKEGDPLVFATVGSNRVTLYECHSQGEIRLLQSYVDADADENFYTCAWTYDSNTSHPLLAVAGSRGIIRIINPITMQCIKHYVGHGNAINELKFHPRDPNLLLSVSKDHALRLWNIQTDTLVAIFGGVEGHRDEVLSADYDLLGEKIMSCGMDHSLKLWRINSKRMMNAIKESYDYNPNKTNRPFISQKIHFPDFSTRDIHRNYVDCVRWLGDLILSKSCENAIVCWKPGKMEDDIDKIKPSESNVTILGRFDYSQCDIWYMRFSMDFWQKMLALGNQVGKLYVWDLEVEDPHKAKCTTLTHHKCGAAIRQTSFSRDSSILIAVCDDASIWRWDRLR
T1 sequence (Q15022 whole entry partner): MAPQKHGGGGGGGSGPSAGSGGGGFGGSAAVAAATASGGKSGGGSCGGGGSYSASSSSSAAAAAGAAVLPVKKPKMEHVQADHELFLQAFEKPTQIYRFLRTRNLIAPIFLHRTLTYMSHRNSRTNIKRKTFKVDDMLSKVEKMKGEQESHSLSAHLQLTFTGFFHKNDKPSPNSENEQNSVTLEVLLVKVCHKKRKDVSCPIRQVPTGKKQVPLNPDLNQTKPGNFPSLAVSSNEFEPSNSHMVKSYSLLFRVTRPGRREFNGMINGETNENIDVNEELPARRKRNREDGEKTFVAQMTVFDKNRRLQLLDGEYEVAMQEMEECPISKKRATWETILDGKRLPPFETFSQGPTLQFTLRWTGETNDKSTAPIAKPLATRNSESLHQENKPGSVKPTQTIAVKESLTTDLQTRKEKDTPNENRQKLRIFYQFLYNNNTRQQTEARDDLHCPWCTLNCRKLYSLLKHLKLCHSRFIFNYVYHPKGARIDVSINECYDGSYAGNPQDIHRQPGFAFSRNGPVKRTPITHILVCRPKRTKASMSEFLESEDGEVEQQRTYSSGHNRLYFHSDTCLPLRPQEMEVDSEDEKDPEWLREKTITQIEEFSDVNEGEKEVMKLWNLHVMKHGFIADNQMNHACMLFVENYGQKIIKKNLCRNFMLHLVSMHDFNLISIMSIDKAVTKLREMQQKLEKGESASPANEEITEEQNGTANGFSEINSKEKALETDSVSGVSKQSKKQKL
T1 sequence (Q09028 whole entry partner): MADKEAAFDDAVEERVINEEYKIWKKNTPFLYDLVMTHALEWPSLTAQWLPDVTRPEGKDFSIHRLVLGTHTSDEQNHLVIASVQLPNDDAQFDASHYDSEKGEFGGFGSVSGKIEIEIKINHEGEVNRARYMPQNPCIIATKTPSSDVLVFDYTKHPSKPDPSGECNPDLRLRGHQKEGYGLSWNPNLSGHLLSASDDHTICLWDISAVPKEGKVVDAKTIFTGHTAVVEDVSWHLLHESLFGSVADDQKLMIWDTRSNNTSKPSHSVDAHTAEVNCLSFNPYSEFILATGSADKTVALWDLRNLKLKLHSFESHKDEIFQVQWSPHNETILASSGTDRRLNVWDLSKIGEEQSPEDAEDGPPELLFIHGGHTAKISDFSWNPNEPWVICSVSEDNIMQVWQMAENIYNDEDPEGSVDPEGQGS

pIC50 | SMILES
4.43 | CCN(c1cc(Cl)cc(C(=O)NCCc2nc3ccccc3[nH]2)c1C)[C@H]1CC[C@H](N(C)C)CC1 [Compound 21, N-(2-(1H-benzo[d]imidazol-2-yl)ethyl)-5-chloro-3-(((1r,4r)-4-(dimethylamino)cyclohexyl)(ethyl)amino)-2-methylbenzamide]
< 4.30 | CCN(c1cc(Cl)cc(C(=O)NCc2cc(C)nn2C)c1C)C1CCOCC1 [Compound 31, 5-chloro-N-((1,3-dimethyl-1H-pyrazol-5-yl)methyl)-3-(ethyl(tetrahydro-2H-pyran-4-yl)amino)-2-methylbenzamide]
5.66 | CCN(c1cc(Cl)cc(C(=O)NCc2cccn3ccnc23)c1C)[C@H]1CC[C@H](N(C)C)CC1 [Compound 3, 5-chloro-3-(((trans)-4-(dimethylamino)cyclohexyl)(ethyl)amino)-N-(imidazo[1,2-a]pyridin-8-ylmethyl)-2-methylbenzamide]
< 4.30 | CCN(c1cc(Cl)cc(C(=O)NCc2cn3ccsc3n2)c1C)C1CCOCC1 [Compound 26, 5-chloro-3-(ethyl(tetrahydro-2H-pyran-4-yl)amino)-N-(imidazo[2,1-b]thiazol-6-ylmethyl)-2-methylbenzamide]
5.52 | CCN(c1cc(Cl)cc(C(=O)NCc2nccn2Cc2ccccc2)c1C)[C@H]1CC[C@H](N(C)C)CC1 [Compound 17, N-((1-benzyl-1H-imidazol-2-yl)methyl)-5-chloro-3-(((1r,4r)-4-(dimethylamino)cyclohexyl)(ethyl)amino)-2-methylbenzamide]
< 5.00 | CCN(c1cc(Cl)cc(C(=O)NCc2ncc(C)[nH]2)c1C)[C@H]1CC[C@H](N(C)C)CC1 [Compound 20, 5-chloro-3-(((trans)-4-(dimethylamino)cyclohexyl)(ethyl)amino)-2-methyl-N-((5-methyl-1H-imidazol-2-yl)methyl)benzamide]
< 4.30 | CCN(c1cc(Cl)cc(C(=O)NCc2cnn(C)c2C)c1C)C1CCOCC1 [Compound 27, 5-chloro-N-((1,5-dimethyl-1H-pyrazol-4-yl)methyl)-3-(ethyl(tetrahydro-2H-pyran-4-yl)amino)-2-methylbenzamide]
4.42 | CCN(c1cc(Cl)cc(C(=O)NCCc2nc3ccccc3s2)c1C)[C@H]1CC[C@H](N(C)C)CC1 [Compound 13, N-(2-(benzo[d]thiazol-2-yl)ethyl)-5-chloro-3-(((trans)-4-(dimethylamino)cyclohexyl)(ethyl)amino)-2-methylbenzamide]
< 5.00 | CCN(c1cc(Cl)cc(C(=O)NCc2ncc[nH]2)c1C)[C@H]1CC[C@H](N(C)C)CC1 [Compound 15, N-((1H-imidazol-2-yl)methyl)-5-chloro-3-(((trans)-4-(dimethylamino)cyclohexyl)(ethyl)amino)-2-methylbenzamide]
5.86 | CCN(c1cc(Cl)cc(C(=O)NCc2c(C)ccn3ccnc23)c1C)[C@H]1CC[C@H](N(C)C)CC1 [Compound 2, 5-chloro-3-(((trans)-4-(dimethylamino)cyclohexyl)(ethyl)amino)-2-methyl-N-((7-methylimidazo[1,2-a]pyridin-8-yl)methyl)benzamide]
4.92 | CCN(c1cc(Cl)cc(C(=O)NCCc2nccn2C)c1C)[C@H]1CC[C@H](N(C)C)CC1 [Compound 8, 5-chloro-3-(((trans)-4-(dimethylamino)cyclohexyl)(ethyl)amino)-2-methyl-N-(2-(1-methyl-1H-imidazol-2-yl)ethyl)benzamide]
< 5.00 | CCN(c1cc(Cl)cc(C(=O)NCc2cccc3ccnn23)c1C)[C@H]1CC[C@H](N(C)C)CC1 [Compound 7, 5-chloro-3-(((trans)-4-(dimethylamino)cyclohexyl)(ethyl)amino)-2-methyl-N-(pyrazolo[1,5-a]pyridin-7-ylmethyl)benzamide]
5.69 | CCN(c1cc(Cl)cc(C(=O)NCCc2ncc[nH]2)c1C)[C@H]1CC[C@H](N(C)C)CC1 [Compound 10, N-(2-(1H-imidazol-2-yl)ethyl)-5-chloro-3-(((trans)-4-(dimethylamino)cyclohexyl)(ethyl)amino)-2-methylbenzamide]
< 4.30 | CCN(c1cc(Cl)cc(C(=O)NCCc2nc3ccccc3n2C)c1C)[C@H]1CC[C@H](N(C)C)CC1 [Compound 11, 5-chloro-3-(((trans)-4-(dimethylamino)cyclohexyl)(ethyl)amino)-2-methyl-N-(2-(1-methyl-1H-benzo[d]imidazol-2-yl)ethyl)benzamide]
6.36 | CCN(c1cc(Cl)cc(C(=O)NCc2c(C)cc(C)n3ccnc23)c1C)[C@H]1CC[C@H](N(C)C)CC1 [Compound 1, 5-chloro-3-(((trans)-4-(dimethylamino)cyclohexyl)(ethyl)amino)-N-((5,7-dimethylimidazo[1,2-a]pyridin-8-yl)methyl)-2-methylbenzamide]
5.78 | CCN(c1cc(Cl)cc(C(=O)NCCc2nccn2Cc2ccccc2)c1C)[C@H]1CC[C@H](N(C)C)CC1 [Compound 9, N-(2-(1-benzyl-1H-imidazol-2-yl)ethyl)-5-chloro-3-(((trans)-4-(dimethylamino)cyclohexyl)(ethyl)amino)-2-methylbenzamide]
5.11 | CCN(c1cc(Cl)cc(C(=O)NCc2cn(C)cn2)c1C)C1CCOCC1 [Compound 25, 5-chloro-3-(ethyl(tetrahydro-2H-pyran-4-yl)amino)-2-methyl-N-((1-methyl-1H-imidazol-4-yl)methyl)benzamide]
6.49 | CCN(c1cc(Cl)cc(C(=O)NCc2c[nH]cn2)c1C)C1CCOCC1 [Compound 30, N-((1H-imidazol-4-yl)methyl)-5-chloro-3-(ethyl(tetrahydro-2H-pyran-4-yl)amino)-2-methylbenzamide]

Reference: patent US9243001B2, “Substituted benzene compounds” (Epizyme, Inc., priority 2013, dated 2016)
